Experimental data reported in patent US20150307530A1, “NOVEL MUCOLYTIC AGENTS” (PARION SCIENCES, INC., priority 2012, published 2015).

How the values were obtained:
[1] = DTNB assay: rate of disulfide bond reduction; format: biochemical; conditions: for DTNB reducing kinetics as a function of pH: pH range relevant for mucosal surfaces (pH 6.0-7.5); for DTNB reducing kinetics as a function of pH / reducing kinetic for DTNB reduction compared with NAC and DTT: FIG. 3; for reducing kinetic for DTNB reduction compared with NAC and DTT: comparison with thiol reducing agents
Description: FIG. 2. Spectrophotometric studies monitored formation of reduced DTNB over time. Reaction rates, generated using second order kinetics, for each compound were compared as a function of reducing agent to substrate (DTNB) concentration at pH 6.5.
FIG. 3. Spectrophotometric studies monitored formation of reduced DTNB over time. Reaction rates, generated using second order kinetics, for each compound were over a pH range relevant for mucosal surfaces.
Mucin Agarose Gel Western Blots: Reducing agent stock solutions are made up in 100 mM Potassium Phosphate and are buffered to pH 6.5. The reducing agent stocks are diluted into saliva samples (pH 6.5) to achieve the final desired reducing agent concentration. […] The reactions are quenched using at least a 2-fold excess of N-ethylmaleimide and/or hydrogen peroxide. A 5× concentrated sample loading buffer is diluted into the samples to achieve a 1× concentration (1×TAE, 5% glycerol, 0.1% SDS, Bromophenol Blue). Samples (50 ug) are analyzed by electrophoresis on 0.9% agarose gels using a buffer system consisting of 1×TAE/0.1% SDS. […] Unreduced and reduced Muc5B are visualized using a polyclonal antibody directed towards Muc5B and a Protoblot II AP System with stabilized substrate. […] Each compound solution (10 uL) is added apically to primary hBEs for 6 hrs. The hBEs are lysed in RIPA buffer supplemented with protease inhibitor cocktail (Roche) and 1 mM PMSF. The samples are normalized to contain the same total amount of protein followed by addition of 2×SDS sample buffer (100 mM Tris-HCl (pH6.8)/4% SDS/0.05% Bromophenol Blue/20% glycerol). Samples (20 […]g) are analyzed by electrophoresis on a 10% SDS-PAGE gel and transferred to a nitrocellulose membrane. BiP levels are visualized using a polyclonal antibody directed towards BiP and the LiCor Odyssey imaging detection system. Thapsigargin (TG, 2.5 µM) served as a positive control for BiP induction. DTNB ASSAY: This assay determines the rate which a mucolytic agent can reduce a disulfide bond using 5,5-Dithiobis(2-nitrobenzoic acid). DTNB in various pH buffers and allows comparison of the kinetic rates of reducing agents. […] Max Abs412 was measured and then utilized to calculate the activity concentration.
The kinetics of disulfide bond reduction can be quantitative measured using 5,5′-dithiobis-(2-nitrobenzoic acid) (DTNB or Ellman's Reagent). DTNB contains an internal disulfide bond, which when reduced, gives rise to two molecules of TNB that can be monitored by […] at 412 nm.

Muc5B = Muc5B (Homo sapiens, UniProt Q9HC84); assay: Mucin agarose gel western blot: Muc5B reduction in saliva; conditions: 30 minute incubation, FIG. 4; for concentration producing Muc5B (mucin) reduction by downward gel shift: pH 6.5, agarose gel/western blot
Description: Analysis of Muc5B reduction by western blot. Saliva was incubated with reducing agents at indicated concentrations for 30 min prior to agarose gel electrophoresis/western blot visualization of unreduced and reduced Muc5B. Both saliva and compounds were buffered to pH 6.5.
Quantitation of Muc5B reduction by western blot.
Saliva samples were aliquoted and incubated with the indicated concentrations of reducing agents (FIG. 4). After a 30 minute incubation, the reducing agents were quenched by the addition of a 10-fold molar excess of N-ethylmaliamide (NEM). The mucus samples were separated by agarose gel electrophoresis and analyzed by western blot.

Balb-C mice = assay: BALF cellularity after pulmonary aspiration in Balb-C mice; format: in vivo; conditions: pulmonary aspiration (40 ul deposited dose), BALF at 4 and 24 hours post administration, all concentrations tested, FIG. 9
Description: FIG. 9. Balb-C mice were administered Compound Ib at the indicated concentrations via pulmonary aspiration (40 ul deposited dose). Bronchoalveolar lavage fluid (BALF) was collected at 4 and 24 hours post administration and the total cellularity of the BALF was determined.

[2] = Hydrogen peroxide incubation (oxygen free radical scavenging), read out by DTNB reduction; format: biochemical; conditions: excess hydrogen peroxide, 60 second incubation; FIG. 10
Description: FIG. 10. Compound Ib was incubated with excess hydrogen peroxide to assess the ability of Compound Ib to scavenge oxygen free radicals. Following a 60 second incubation with hydrogen peroxide, the activity of Compound Ib was determined by its ability to reduce DTNB (Ellman's Reagent).

[3] = Elimination of inhaled 14C-labeled NAC from the lungs in animal studies; format: in vivo; conditions: inhaled or intranasal, 14C-labeled NAC administered by inhalation, animal studies (unpublished observation)
Description: NAC, as a topical pulmonary therapeutic agent, is not optimal for the reduction of mucin disulfide bonds. […] For example, in the pH environment of the airway surface (measured in the range of pH 6.0 to 7.2 in CF and COPD airways), NAC exists only partially in its reactive state as a negatively charge thiolate (Jayaraman S, Song Y, Vetrivel L, Shankar L, Verkman A S. Noninvasive in vivo fluorescence measurement of airway-surface liquid depth, salt concentration, and pH. J Clin Invest. 2001; 107(3):317-24) (FIG. 3). […] The relatively low reducing activity at of NAC physiologic airway pH and a the short half-life of NAC on the lung surface provide an explanation for the lack of strong clinical evidence for effective mucus reduction in mucus obstructive diseases.

Row | concentration producing Muc5B (mucin) reduction by downward gel shift (Muc5B) [mM] | half-life [3] [min] | Compound | DTNB reducing kinetics as a function of pH [1] | reducing kinetic for DTNB reduction compared with NAC and DTT [1] | DTNB reduction kinetics as a function of reducing agent to DTNB ratio ([1]; increasing concentrations of reducing agent, fixed concentration of DTNB and pH (7.0), FIG. 2) | total cellularity of the BALF compared to vehicle (Balb-C mice) | activity (ability to reduce DTNB) after incubation with hydrogen peroxide [2] | potency of mucus (Muc5B) reduction relative to NAC and DTT (Muc5B)
1 | ≥ 3 | – | O[C@H](CS)[C@H](O)CS (racemic) [DTT, dithiothreitol, reference compound] | pH-dependent increase in DTNB reduction | – | – | – | – | –
2 | – | – | NCCP(c1ccccc1)c1ccccc1 [If, 2-(diphenylphosphino)ethanamine] | fastest reducing kinetic tested | faster reducing kinetic | – | – | – | –
3 | > 100 | ~20 | CC(=O)N[C@@H](CS)C(=O)O [NAC, N-acetyl cysteine, reference compound] | pH-dependent increase in DTNB reduction | – | – | – | – | –

Row | Compound | concentration producing Muc5B (mucin) reduction by downward gel shift (Muc5B) [mM] | half-life [3] [min] | DTNB reducing kinetics as a function of pH [1] | reducing kinetic for DTNB reduction compared with NAC and DTT [1] | DTNB reduction kinetics as a function of reducing agent to DTNB ratio ([1]; increasing concentrations of reducing agent, fixed concentration of DTNB and pH (7.0), FIG. 2) | total cellularity of the BALF compared to vehicle (Balb-C mice) | activity (ability to reduce DTNB) after incubation with hydrogen peroxide [2] | potency of mucus (Muc5B) reduction relative to NAC and DTT (Muc5B)
4 | O=C(O)CCP(CCC(=O)O)CCC(=O)O [Compound Ib, 3,3′,3″-phosphinetriyltripropanoic acid] | ≥ 1 | – | pH-dependent increase in reducing activity | faster reducing kinetic | fastest reduction kinetics at all ratios of reducing agent to DTNB substrate | did not increase BALF cellularity compared to the vehicle | decreased the activity | more potent
